Test results: patent US20040167165A1, “Methods of treating conditions associated with an Edg-7 receptor” (priority 2003, published 2004)

Assays:
Edg-1 = molecular target: T1, Edg-1 (Homo sapiens, UniProt P21453); experiment: S1P-stimulated calcium increases in HTC cells expressing Edg-1; format: cell-based; conditions: concentrations as high as 10 μM
T1 construct: expressed in transfected cells; host or cells: HTC rat hepatoma cells

Edg4 = experiment: LPA-stimulated calcium increases in HTC cells expressing Edg4; format: cell-based; conditions: concentrations as high as 10 μM
human Edg 7 receptors = molecular target: T2, human Edg 7 receptors (Homo sapiens, UniProt Q9UBY5); experiment: LPA-stimulated calcium mobilization (FLIPR) in HTC cells expressing Edg-7; format: cell-based
T2 construct: expressed in transfected cells; host or cells: HTC rat hepatoma cells
T2 sequence (Q9UBY5 1-353): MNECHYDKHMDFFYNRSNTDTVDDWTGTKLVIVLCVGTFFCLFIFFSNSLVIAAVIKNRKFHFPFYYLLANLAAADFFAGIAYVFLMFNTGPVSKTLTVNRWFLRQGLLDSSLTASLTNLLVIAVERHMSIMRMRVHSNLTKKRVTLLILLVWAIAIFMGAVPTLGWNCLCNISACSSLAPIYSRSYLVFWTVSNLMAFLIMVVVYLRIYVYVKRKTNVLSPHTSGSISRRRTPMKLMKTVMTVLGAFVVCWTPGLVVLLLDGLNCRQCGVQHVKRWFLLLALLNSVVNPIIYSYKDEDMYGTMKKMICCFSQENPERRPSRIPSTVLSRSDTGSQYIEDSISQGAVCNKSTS
Method: The compounds were tested in HTC cells expressing human Edg 7 receptors, as well as in HT1080 human fibrosarcoma cell lines that naturally express Edg 7 receptors. […] The compounds are tested in this recombinant system first, and subsequently tested in cell lines expressing Edg-7 (in addition to other Edg receptors).
LPA receptors such as Edg-7, couple to calcium effector pathways, and result in increases in intracellular calcium following receptor activation (An, 1998, J. Cell. Biochem Supp. 30-31:147-157). This biological response lends itself to a very efficient, high-throughput screen using a Fluorescence Imaging Plate Reader (FLIPR; Molecular Devices, Sunnyvale, Calif.). The FLIPR system is a real-time, cell-based assay system with continuous fluorescence detection using a cooled CCD camera. The FLIPR system was used to developing an Edg-7 receptor screen. Rat hepatoma cells stably expressing Edg-7 receptor were plated on 384-well plates and loaded with a calcium dye loading kit (Molecular Devices, Sunnyvale, Calif.) for 1 hour at room temperature. Cells were then placed on the FLIPR^384 (Molecular Devices, Sunnyvale, Calif.) and excited by an argon laser at 488 nm. The data for the entire 384-well plate was updated every second. An integrated robotic pipettor allowed for simultaneous compound addition into each individual well in the plate.

Edg-3 = molecular target: T3, Edg-3 (Homo sapiens, UniProt Q99500); experiment: S1P-stimulated calcium increases in HTC cells expressing Edg-3; format: cell-based; conditions: concentrations as high as 10 μM
T3 construct: expressed in transfected cells; host or cells: HTC rat hepatoma cells

Edg-8 = molecular target: T4, Edg-8 (Homo sapiens, UniProt Q9H228); experiment: S1P-stimulated calcium increases in HTC cells expressing Edg-8; format: cell-based; conditions: concentrations as high as 10 μM
T4 construct: expressed in transfected cells; host or cells: HTC rat hepatoma cells

[1] = test system: targets, including GPCRs and ion channels; experiment: Pharmacology profiling: radioligand binding assays on non-Edg targets; conditions: Section 6.10 panel: adrenergic α1, α2, β, angiotensin AT2, calcium channel Type L, dopamine D2L, endothelin ETA, histamine H1, muscarinic, serotonin 5-HT1; significance criteria ≧50%
Method: In order to test the selectivity of compounds, various enzyme assays as well as radioligand binding assays were performed using numerous non-Edg receptor targets as listed below.
A radioligand binding assay was performed using adrenergic α1 according to the method of Greengrass and Bremner 1979, Eur. J. Pharmacol. 55:323-326. A radioligand binding assay was performed using adrenergic α2 according to the method of Boyajian and Leslie, 1987, J. Pharmacol. Exp. Ther. 241:1092-1098. A radioligand binding assay was performed using adrenergic β according to the method of Feve et al., 1994, Proc. Natl. Acad. Sci. USA 91:5677-5681. A radioligand binding assay was performed using angiotensin AT2 according to the method of Whitebread et al., 1991, Biochem. Biophys. Res. Comm. 181:1365-1371. A radioligand binding assay was performed using calcium channel Type L, dihydropyridine according to the method of Ehlert et al., 1982, Life Sci. 30:2191-2202. A radioligand binding assay was performed using dopamine D2L according to the method of Bunzo et al., 1988, Nature 336:783-787. A radioligand binding assay was performed using endothelin ETA according to the method of Mihara et al., 1994, J. Phrmacol. Exp Ther. 268:1122-1127. A radioligand binding assay was performed using histamine H1 Central according to the method of Hill et al., 1978, J. Neurochem. 31:997-1004. […]

Edg-5 = molecular target: T5, Edg-5 (Homo sapiens, UniProt O95136); experiment: S1P-stimulated calcium increases in HTC cells expressing Edg-5; format: cell-based; conditions: concentrations as high as 10 μM
T5 construct: expressed in transfected cells; host or cells: HTC rat hepatoma cells

Edg-2 = molecular target: T6, Edg-2 (Homo sapiens, UniProt Q92633); experiment: LPA-stimulated calcium increases in HTC cells expressing Edg-2; format: cell-based; conditions: concentrations as high as 10 μM
T6 construct: expressed in transfected cells; host or cells: HTC rat hepatoma cells
T6 sequence (Q92633 whole entry): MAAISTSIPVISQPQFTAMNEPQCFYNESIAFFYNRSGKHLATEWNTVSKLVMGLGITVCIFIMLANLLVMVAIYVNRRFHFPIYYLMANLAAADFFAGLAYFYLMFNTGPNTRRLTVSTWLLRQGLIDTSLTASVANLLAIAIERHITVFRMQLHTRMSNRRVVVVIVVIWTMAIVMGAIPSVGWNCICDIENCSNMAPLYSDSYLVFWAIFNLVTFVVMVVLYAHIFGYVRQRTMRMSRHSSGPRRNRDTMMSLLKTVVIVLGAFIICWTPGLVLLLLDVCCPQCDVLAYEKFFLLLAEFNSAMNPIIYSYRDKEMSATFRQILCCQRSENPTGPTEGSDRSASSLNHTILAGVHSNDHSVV

T4 sequence (Q9H228 whole entry): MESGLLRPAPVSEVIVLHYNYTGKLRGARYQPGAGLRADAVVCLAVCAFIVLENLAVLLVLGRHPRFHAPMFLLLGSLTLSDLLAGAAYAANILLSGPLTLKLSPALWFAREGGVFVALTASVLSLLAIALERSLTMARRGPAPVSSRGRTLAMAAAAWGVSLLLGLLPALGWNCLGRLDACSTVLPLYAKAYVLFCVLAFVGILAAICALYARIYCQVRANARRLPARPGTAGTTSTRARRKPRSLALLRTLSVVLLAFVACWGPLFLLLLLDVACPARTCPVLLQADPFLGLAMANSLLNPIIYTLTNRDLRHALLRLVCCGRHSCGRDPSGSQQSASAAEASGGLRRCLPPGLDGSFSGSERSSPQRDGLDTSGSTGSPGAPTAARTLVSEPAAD
T1 sequence (P21453 whole entry): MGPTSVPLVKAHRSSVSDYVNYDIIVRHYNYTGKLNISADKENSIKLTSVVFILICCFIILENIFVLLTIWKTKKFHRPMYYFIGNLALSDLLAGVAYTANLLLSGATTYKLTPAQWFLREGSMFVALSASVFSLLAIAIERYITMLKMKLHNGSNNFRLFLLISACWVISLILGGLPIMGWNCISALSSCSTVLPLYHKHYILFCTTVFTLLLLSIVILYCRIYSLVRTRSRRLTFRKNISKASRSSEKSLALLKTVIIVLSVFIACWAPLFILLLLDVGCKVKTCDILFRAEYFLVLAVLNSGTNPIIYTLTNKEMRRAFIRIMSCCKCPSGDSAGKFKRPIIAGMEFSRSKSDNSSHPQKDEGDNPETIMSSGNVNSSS
T5 sequence (O95136 whole entry): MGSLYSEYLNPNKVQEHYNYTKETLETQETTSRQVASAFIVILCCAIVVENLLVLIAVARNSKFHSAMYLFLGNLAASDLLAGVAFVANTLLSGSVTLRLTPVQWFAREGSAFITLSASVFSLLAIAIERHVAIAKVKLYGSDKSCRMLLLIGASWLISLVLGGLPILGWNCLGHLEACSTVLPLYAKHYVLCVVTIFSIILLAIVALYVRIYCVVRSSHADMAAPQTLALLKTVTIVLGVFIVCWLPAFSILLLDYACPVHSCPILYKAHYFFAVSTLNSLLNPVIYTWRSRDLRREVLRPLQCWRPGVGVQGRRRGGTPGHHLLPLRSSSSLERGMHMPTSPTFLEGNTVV
T3 sequence (Q99500 whole entry): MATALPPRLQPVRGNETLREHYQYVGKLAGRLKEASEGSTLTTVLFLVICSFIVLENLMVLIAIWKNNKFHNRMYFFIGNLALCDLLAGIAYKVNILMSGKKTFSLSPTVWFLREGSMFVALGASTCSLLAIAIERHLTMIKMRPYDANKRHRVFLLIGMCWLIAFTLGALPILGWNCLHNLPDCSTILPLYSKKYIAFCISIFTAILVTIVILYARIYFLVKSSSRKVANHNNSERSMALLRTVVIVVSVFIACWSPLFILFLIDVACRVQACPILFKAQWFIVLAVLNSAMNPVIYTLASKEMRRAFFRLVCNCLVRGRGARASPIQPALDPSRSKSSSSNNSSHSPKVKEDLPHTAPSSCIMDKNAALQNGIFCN

Row | Structure (SMILES) | inhibition of S1P-stimulated calcium increases (Edg-1) | inhibition of LPA-stimulated calcium increases (Edg4) | inhibition of the Edg-7 receptor (human Edg 7 receptors; FIG. 1, HTC cells) | inhibition of Edg-7 stimulated LPA responses (human Edg 7 receptors; HTC cells expressing human Edg 7 receptors, as well as HT1080 human fibrosarcoma cell lines) | inhibition of S1P-stimulated calcium increases (Edg-3) | inhibition of S1P-stimulated calcium increases (Edg-8) | activity in radioligand binding assays [1] | inhibition of S1P-stimulated calcium increases (Edg-5) | inhibition of LPA-stimulated calcium increases (Edg-2) | melting point [°C]
1 | CCOC(=O)c1c(NC(=O)NS(=O)(=O)c2ccccc2Cl)sc2c1CCCC2 [Compound 101] | did not inhibit | did not inhibit | specifically inhibit | demonstrate inhibition | did not inhibit | did not inhibit | no significant activity | did not inhibit | did not inhibit | –
2 | COc1ccc(-c2nc3ccc(C(=O)O)cc3nc2-c2ccc(OC)cc2)cc1 [Compound 129, 2,3-bis-(4-Methoxyphenyl)quinoxaline-6-carboxylic acid] | – | – | – | – | – | – | – | – | – | 284 to 285
3 | Cc1cc(C)c2c(c1)Cc1ccccc1S2(=O)=O [Compound 133, 2,4-Dimethyl-9H-thioxanthene 10,10-dioxide] | – | – | – | – | – | – | – | – | – | 103 to 105
